Data taken from article PMC9541843, “N‐terminal alterations turn the gut hormone GLP‐2 into an antagonist with gradual loss of GLP‐2 receptor selectivity towards more GLP‐1 receptor interaction” (British Journal of Pharmacology, 2022).
Where two headings read alike, the source gives them in different places. Peptide text beside a SMILES is read from it. * marks the point of attachment. C16 diacid = O=C(O)CCCCCCCCCCCCCCC(=O)*

Assays:
[1] = biological target: T1, human GLP‐2R (Homo sapiens, UniProt O95838); test: cell-based; settings: SEM
T1 sequence (O95838 1-553): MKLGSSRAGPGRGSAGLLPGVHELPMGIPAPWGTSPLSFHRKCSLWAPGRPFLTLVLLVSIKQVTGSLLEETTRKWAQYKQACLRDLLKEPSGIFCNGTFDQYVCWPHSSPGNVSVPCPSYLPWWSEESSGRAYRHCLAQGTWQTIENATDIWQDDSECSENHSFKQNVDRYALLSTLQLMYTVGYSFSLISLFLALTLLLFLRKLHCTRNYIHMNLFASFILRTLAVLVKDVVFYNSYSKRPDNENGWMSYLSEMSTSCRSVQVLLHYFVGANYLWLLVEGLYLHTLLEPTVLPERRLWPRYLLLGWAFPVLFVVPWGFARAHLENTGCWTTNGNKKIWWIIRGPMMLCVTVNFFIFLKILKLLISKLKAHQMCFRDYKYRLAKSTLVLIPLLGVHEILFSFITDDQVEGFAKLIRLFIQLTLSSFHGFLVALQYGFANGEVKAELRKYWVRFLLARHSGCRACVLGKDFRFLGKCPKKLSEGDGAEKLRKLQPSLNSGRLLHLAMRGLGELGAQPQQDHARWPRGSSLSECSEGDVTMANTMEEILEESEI

[2] = biological target: T1, human GLP‐2R; test: cAMP accumulation, agonism (HitHunter cAMP assay); settings: for Emax: COS-7, read-out: cAMP activation Emax ± SEM
[3] = biological target: T1, human GLP‐2R; test: Schild plot analysis of cAMP activation curve of GLP‐2; type: cell-based; design: host or cells: COS-7 (transient, calcium phosphate); settings: COS‐7 cells, n = 5 in duplicate, read-out: Ki from Schild plot (pA2) (converted)
Description: Statistical significance was accepted at P < 0.05.
We used a Schild plot approach, where we examined their ability to right‐shift the cAMP activation curve of native GLP‐2 (Figure 4a–d). For GLP‐2(2‐33), GLP‐(3‐33) and GLP‐2(4‐33), all having intrinsic activity, the Schild plot analysis was based on an equieffective DR (the concentrations at 60% of Emax). For GLP‐2(3‐33)[D3A], with no intrinsic activity, the Schild plot analysis was conducted based on the shift in the EC50 values for GLP‐2 with and without GLP‐2(3‐33)[D3A] as previously described (Sparre‐Ulrich et al., [2017]).

[4] = biological target: human GLP‐1R (Homo sapiens, UniProt P43220); test: cAMP accumulation, inhibition of GLP‐1‐mediated response (selectivity); settings: for inhibition at 1 µM: COS-7, read-out: Inhibition of GLP‐1‐mediated cAMP response at the human GLP‐1R
[5] = biological target: T1, human GLP‐2R; test: cAMP accumulation, inhibition of GLP‐2‐induced activation; settings: for Inhibition of GLP‐2‐induced cAMP at the human GLP‐2R: at 1 μM peptide (highest tested concentration), COS‐7 cells

human GLP‐1R, sequence (P43220 24-463): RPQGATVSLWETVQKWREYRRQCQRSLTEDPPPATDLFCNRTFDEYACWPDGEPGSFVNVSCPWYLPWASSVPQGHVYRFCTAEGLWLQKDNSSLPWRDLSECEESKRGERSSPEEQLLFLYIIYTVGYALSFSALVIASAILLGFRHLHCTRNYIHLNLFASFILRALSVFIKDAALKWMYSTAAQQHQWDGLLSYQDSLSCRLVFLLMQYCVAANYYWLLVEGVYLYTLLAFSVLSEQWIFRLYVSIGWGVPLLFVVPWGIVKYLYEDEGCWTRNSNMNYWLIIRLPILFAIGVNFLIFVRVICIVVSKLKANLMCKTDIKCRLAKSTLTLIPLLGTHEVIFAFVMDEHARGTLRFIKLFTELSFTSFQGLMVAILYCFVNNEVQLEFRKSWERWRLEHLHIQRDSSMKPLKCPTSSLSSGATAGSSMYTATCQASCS

| IC50 [1] | Emax ([2]; SEM) | EC50 ([2]; SEM) | Ki [3] | inhibition at 1 µM [4] | IC50 [5] | IC50 [4] | Inhibition of GLP‐2‐induced cAMP at the human GLP‐2R [5] | EC50 [2] | IC50 ([5]; SEM) | Emax [2] | Compound |
| --- | --- | --- | --- | --- | --- | --- | --- | --- | --- | --- | --- |
| 7.94 nM | 20 ± 3.2% | 7.94 nM | 40 nM | 30 to 38% | 174 nM | – | – | – | – | – | CC[C@H](C)[C@H](NC(=O)[C@H](Cc1ccccc1)NC(=O)[C@H](CC(=O)O)NC(=O)[C@H](CCCNC(=N)N)NC(=O)[C@H](C)NC(=O)[C@H](C)NC(=O)[C@H](CC(C)C)NC(=O)[C@H](CC(N)=O)NC(=O)[C@H](CC(=O)O)NC(=O)[C@H](CC(C)C)NC(=O)[C@@H](NC(=O)[C@@H](NC(=O)[C@H](CC(N)=O)NC(=O)[C@H](CCSC)NC(=O)[C@H](CCC(=O)O)NC(=O)[C@H](CC(=O)O)NC(=O)[C@H](CO)NC(=O)[C@H](Cc1ccccc1)NC(=O)[C@H](CO)NC(=O)CNC(=O)[C@H](CC(=O)O)NC(=O)[C@H](C)N)[C@@H](C)O)[C@@H](C)CC)C(=O)N[C@@H](CC(N)=O)C(=O)N[C@@H](Cc1c[nH]c2ccccc12)C(=O)N[C@@H](CC(C)C)C(=O)N[C@H](C(=O)N[C@@H](CCC(N)=O)C(=O)N[C@H](C(=O)N[C@@H](CCCCN)C(=O)N[C@H](C(=O)N[C@H](C(=O)N[C@@H](CC(=O)O)C(=O)O)[C@@H](C)O)[C@@H](C)CC)[C@@H](C)O)[C@@H](C)CC [GLP‐2(2‐33)] (H-ADGSFSDEMNTILDNLAARDFINWLIQTKITD-OH) |
| 7.94 nM | – | 25.1 nM | 126 nM | – | 204 nM | – | – | – | – | – | CC[C@H](C)[C@H](NC(=O)[C@H](Cc1ccccc1)NC(=O)[C@H](CC(=O)O)NC(=O)[C@H](CCCN=C(N)N)NC(=O)[C@H](C)NC(=O)[C@H](C)NC(=O)[C@H](CC(C)C)NC(=O)[C@H](CC(N)=O)NC(=O)[C@H](CC(=O)O)NC(=O)[C@H](CC(C)C)NC(=O)[C@@H](NC(=O)[C@@H](NC(=O)[C@H](CC(N)=O)NC(=O)[C@H](CCSC)NC(=O)[C@H](CCC(=O)O)NC(=O)[C@H](CC(=O)O)NC(=O)[C@H](CO)NC(=O)[C@H](Cc1ccccc1)NC(=O)[C@H](CO)NC(=O)CNC(=O)[C@@H](N)CC(=O)O)[C@@H](C)O)[C@@H](C)CC)C(=O)N[C@@H](CC(N)=O)C(=O)N[C@@H](Cc1c[nH]c2ccccc12)C(=O)N[C@@H](CC(C)C)C(=O)N[C@H](C(=O)N[C@@H](CCC(N)=O)C(=O)N[C@H](C(=O)N[C@@H](CCCCN)C(=O)N[C@H](C(=O)N[C@H](C(=O)N[C@@H](CC(=O)O)C(=O)O)[C@@H](C)O)[C@@H](C)CC)[C@@H](C)O)[C@@H](C)CC [GLP‐2(3‐33)] (H-DGSFSDEMNTILDNLAARDFINWLIQTKITD-OH) |
| – | 21 ± 2.2% | – | – | 30 to 38% | – | – | – | – | – | – | CC[C@H](C)[C@H](NC(=O)[C@H](Cc1ccccc1)NC(=O)[C@H](CC(=O)O)NC(=O)[C@H](CCCNC(=N)N)NC(=O)[C@H](C)NC(=O)[C@H](C)NC(=O)[C@H](CC(C)C)NC(=O)[C@H](CC(N)=O)NC(=O)[C@H](CC(=O)O)NC(=O)[C@H](CC(C)C)NC(=O)[C@@H](NC(=O)[C@@H](NC(=O)[C@H](CC(N)=O)NC(=O)[C@H](CCSC)NC(=O)[C@H](CCC(=O)O)NC(=O)[C@H](CC(=O)O)NC(=O)[C@H](CO)NC(=O)[C@H](Cc1ccccc1)NC(=O)[C@H](CO)NC(=O)CNC(=O)[C@@H](N)CC(=O)O)[C@@H](C)O)[C@@H](C)CC)C(=O)N[C@@H](CC(N)=O)C(=O)N[C@@H](Cc1c[nH]c2ccccc12)C(=O)N[C@@H](CC(C)C)C(=O)N[C@H](C(=O)N[C@@H](CCC(N)=O)C(=O)N[C@H](C(=O)N[C@@H](CCCCN)C(=O)N[C@H](C(=O)N[C@H](C(=O)N[C@@H](CC(=O)O)C(=O)O)[C@@H](C)O)[C@@H](C)CC)[C@@H](C)O)[C@@H](C)CC [GLP‐2(3‐33)] (H-DGSFSDEMNTILDNLAARDFINWLIQTKITD-OH) |
| – | – | – | 40 nM | – | 162 nM | – | – | – | – | – | CC[C@H](C)[C@H](NC(=O)[C@H](Cc1ccccc1)NC(=O)[C@H](CC(=O)O)NC(=O)[C@H](CCCNC(=N)N)NC(=O)[C@H](C)NC(=O)[C@H](C)NC(=O)[C@H](CC(C)C)NC(=O)[C@H](CC(N)=O)NC(=O)[C@H](CC(=O)O)NC(=O)[C@H](CC(C)C)NC(=O)[C@@H](NC(=O)[C@@H](NC(=O)[C@H](CC(N)=O)NC(=O)[C@H](CCSC)NC(=O)[C@H](CCC(=O)O)NC(=O)[C@H](CC(=O)O)NC(=O)[C@H](CO)NC(=O)[C@H](Cc1ccccc1)NC(=O)[C@H](CO)NC(=O)CNC(=O)[C@H](C)N)[C@@H](C)O)[C@@H](C)CC)C(=O)N[C@@H](CC(N)=O)C(=O)N[C@@H](Cc1c[nH]c2ccccc12)C(=O)N[C@@H](CC(C)C)C(=O)N[C@H](C(=O)N[C@@H](CCC(N)=O)C(=O)N[C@H](C(=O)N[C@@H](CCCCN)C(=O)N[C@H](C(=O)N[C@H](C(=O)N[C@@H](CC(=O)O)C(=O)O)[C@@H](C)O)[C@@H](C)CC)[C@@H](C)O)[C@@H](C)CC [GLP‐2(3‐33)[D3A]] (H-AGSFSDEMNTILDNLAARDFINWLIQTKITD-OH) |
| – | – | – | – | 67% | 12.3 nM | 40 nM | 93% | – | – | – | CC[C@H](C)[C@H](NC(=O)[C@H](Cc1ccccc1)NC(=O)[C@H](CC(=O)O)NC(=O)[C@H](CCCNC(=N)N)NC(=O)[C@H](C)NC(=O)[C@H](C)NC(=O)[C@H](CC(C)C)NC(=O)[C@H](CC(N)=O)NC(=O)[C@H](CC(=O)O)NC(=O)[C@H](CC(C)C)NC(=O)[C@@H](NC(=O)[C@@H](NC(=O)[C@H](CC(N)=O)NC(=O)[C@H](CCSC)NC(=O)[C@H](CCC(=O)O)NC(=O)[C@H](CC(=O)O)NC(=O)[C@H](CO)NC(=O)[C@H](Cc1ccccc1)NC(=O)[C@H](CO)NC(=O)CCCCCCCCCCCCCCC(=O)O)[C@@H](C)O)[C@@H](C)CC)C(=O)N[C@@H](CC(N)=O)C(=O)N[C@@H](Cc1c[nH]c2ccccc12)C(=O)N[C@@H](CC(C)C)C(=O)N[C@H](C(=O)N[C@@H](CCC(N)=O)C(=O)N[C@H](C(=O)N[C@@H](CCCCN)C(=O)N[C@H](C(=O)N[C@H](C(=O)N[C@@H](CC(=O)O)C(=O)O)[C@@H](C)O)[C@@H](C)CC)[C@@H](C)O)[C@@H](C)CC [GLP‐2(5‐33)(C16‐diacid/5)] ({C16 diacid}-SFSDEMNTILDNLAARDFINWLIQTKITD-OH) |
| 6.31 nM | 17 ± 2.6% | – | 6.3 nM | – | – | – | – | 158 nM | 79.4 nM | – | CC[C@H](C)[C@H](NC(=O)[C@H](Cc1ccccc1)NC(=O)[C@H](CC(=O)O)NC(=O)[C@H](CCCNC(=N)N)NC(=O)[C@H](C)NC(=O)[C@H](C)NC(=O)[C@H](CC(C)C)NC(=O)[C@H](CC(N)=O)NC(=O)[C@H](CC(=O)O)NC(=O)[C@H](CC(C)C)NC(=O)[C@@H](NC(=O)[C@@H](NC(=O)[C@H](CC(N)=O)NC(=O)[C@H](CCSC)NC(=O)[C@H](CCC(=O)O)NC(=O)[C@H](CC(=O)O)NC(=O)[C@H](CO)NC(=O)[C@H](Cc1ccccc1)NC(=O)[C@H](CO)NC(=O)CN)[C@@H](C)O)[C@@H](C)CC)C(=O)N[C@@H](CC(N)=O)C(=O)N[C@@H](Cc1c[nH]c2ccccc12)C(=O)N[C@@H](CC(C)C)C(=O)N[C@H](C(=O)N[C@@H](CCC(N)=O)C(=O)N[C@H](C(=O)N[C@@H](CCCCN)C(=O)N[C@H](C(=O)N[C@H](C(=O)N[C@@H](CC(=O)O)C(=O)O)[C@@H](C)O)[C@@H](C)CC)[C@@H](C)O)[C@@H](C)CC [GLP‐2(4‐33)] (H-GSFSDEMNTILDNLAARDFINWLIQTKITD-OH) |
| – | – | – | – | 91% | 7.9 nM | 50 nM | 87% | – | – | 25% | CC[C@H](C)[C@H](NC(=O)[C@H](Cc1ccccc1)NC(=O)[C@H](CC(=O)O)NC(=O)[C@H](CCCNC(=N)N)NC(=O)[C@H](C)NC(=O)[C@H](C)NC(=O)[C@H](CC(C)C)NC(=O)[C@H](CC(N)=O)NC(=O)[C@H](CC(=O)O)NC(=O)[C@H](CC(C)C)NC(=O)[C@@H](NC(=O)[C@@H](NC(=O)[C@H](CC(N)=O)NC(=O)[C@H](CCSC)NC(=O)[C@H](CCC(=O)O)NC(=O)[C@H](CC(=O)O)NC(=O)[C@H](CO)NC(=O)[C@H](Cc1ccccc1)NC(=O)[C@H](CO)NC(=O)CNC(=O)[C@H](CC(=O)O)NC(=O)CCCCCCCCCCCCCCC(=O)O)[C@@H](C)O)[C@@H](C)CC)C(=O)N[C@@H](CC(N)=O)C(=O)N[C@@H](Cc1c[nH]c2ccccc12)C(=O)N[C@@H](CC(C)C)C(=O)N[C@H](C(=O)N[C@@H](CCC(N)=O)C(=O)N[C@H](C(=O)N[C@@H](CCCCN)C(=O)N[C@H](C(=O)N[C@H](C(=O)N[C@@H](CC(=O)O)C(=O)O)[C@@H](C)O)[C@@H](C)CC)[C@@H](C)O)[C@@H](C)CC [GLP‐2(3‐33)(C16‐diacid/3)] ({C16 diacid}-DGSFSDEMNTILDNLAARDFINWLIQTKITD-OH) |
